# The supplement of paper PMC11061612
# Columns and labels:
# Assay in all cases: combination Emax (second highest fraction inhibited in the dose matrix, 72 h); higher = more inhibition; extreme values may be limits of the assay
# [1] = test system: DOV13 (Ovarian Carcinoma)
# Outline: (§1)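 Cell lines grown in DMEM/F12 or RPMI with 10% FBS were plated in 1536-well plates and held 24 hours at 37°C, 5% CO2 before 72 hours of exposure to two-drug dose matrices, with DMSO typically at 0.2%. CellTiter-Glo 2.0 luminescence gave viability, which was converted to inhibition. Vehicle wells were set to 0 and blank wells to 1. Combination Emax is the second-highest inhibition in the matrix, and Bliss excess is the observed combination effect minus the expected EA + EB − EA·EB, where EA and EB are the single-agent effects.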
# [2] = test system: COR-L95 (Small Cell Lung Carcinoma)
# Outline: as §1
# [3] = test system: MFH-ino (Other Solid Carcinomas)
# Outline: as §1
# [4] = test system: SN12C (Kidney Carcinoma)
# Outline: as §1
# [5] = test system: KARPAS-1106P (B-Cell Non-Hodgkin's Lymphoma)
# Outline: as §1
# [6] = test system: MDA-MB-157 (Breast Carcinoma)
# Outline: as §1
# [7] = test system: TE-5 (Esophageal Squamous Cell Carcinoma)
# Outline: as §1
# [8] = test system: NCI-H1299 (Non-Small Cell Lung Carcinoma)
# Outline: as §1
# [9] = test system: DSH1 (Bladder Carcinoma)
# Outline: as §1
# [10] = test system: U-266 (Plasma Cell Myeloma)
# Outline: as §1
# [11] = test system: G-292-Clone-A141B1 (Osteosarcoma)
# Outline: as §1
# [12] = test system: SW1783 (Low Grade Glioma)
# Outline: as §1
# [13] = test system: LS-513 (Colorectal Carcinoma)
# Outline: as §1
# [14] = test system: MDA-MB-231 (Breast Carcinoma)
# Outline: as §1
# [15] = test system: SK-N-FI (Neuroblastoma)
# Outline: as §1
# [16] = test system: DB (B-Cell Non-Hodgkin's Lymphoma)
# Outline: as §1
# [17] = test system: IHH-4 (Thyroid Gland Carcinoma)
# Outline: as §1
# [18] = test system: OCI-AML2 (Acute Myeloid Leukemia)
# Outline: as §1
# [19] = test system: NCI-H2595 (Mesothelioma)
# Outline: as §1
# [20] = test system: KARPAS-620 (Plasma Cell Myeloma)
# Outline: as §1
structure (smiles),measurement,setting,value
"C=CCn1c(=O)c2cnc(Nc3ccc(N4CCN(C)CC4)cc3)nc2n1-c1cccc(C(C)(C)O)n1 [AZD1775] + CCc1c2c(nc3ccc(O)cc13)-c1cc3c(c(=O)n1C2)COC(=O)[C@]3(O)CC [SN-38] (first compound max 1 µM, partner max 0.3 µM)",combination Emax,[1],1
same,combination Emax,[2],0.542
same,combination Emax,[3],0.737
same,combination Emax,[4],0.587
same,combination Emax,[5],0.924
same,combination Emax,[6],0.967
same,combination Emax,[7],0.875
same,combination Emax,[8],0.751
same,combination Emax,[9],0.999
same,combination Emax,[10],0.715
same,combination Emax,[11],0.464
same,combination Emax,[12],0.825
same,combination Emax,[13],0.771
same,combination Emax,[14],0.916
same,combination Emax,[15],0.586
same,combination Emax,[16],0.985
same,combination Emax,[17],0.975
same,combination Emax,[18],1
same,combination Emax,[19],0.318
same,combination Emax,[20],0.546
"C=CCn1c(=O)c2cnc(Nc3ccc(N4CCN(C)CC4)cc3)nc2n1-c1cccc(C(C)(C)O)n1 [AZD1775] + Nc1ccn([C@@H]2O[C@H](CO)[C@@H](O)C2(F)F)c(=O)n1 [Gemcitabine] (first compound max 1 µM, partner max 0.3 µM)",combination Emax,[1],0.952
same,combination Emax,[2],0.411
same,combination Emax,[3],0.68
same,combination Emax,[4],0.576
same,combination Emax,[5],0.94
same,combination Emax,[6],0.917
same,combination Emax,[7],0.568
same,combination Emax,[8],0.818
same,combination Emax,[9],0.923
same,combination Emax,[10],0.765
same,combination Emax,[11],0.317
same,combination Emax,[12],0.684
same,combination Emax,[13],0.839
same,combination Emax,[14],0.78
same,combination Emax,[15],0.616
same,combination Emax,[16],0.952
same,combination Emax,[17],1
same,combination Emax,[18],1
same,combination Emax,[19],0.344
same,combination Emax,[20],0.548
"CN(CCO)CC[C@H](CSc1ccccc1)Nc1ccc(S(=O)(=O)NC(=O)c2ccc(N3CCC([C@@H](O)c4ccccc4-c4ccc(Cl)cc4)CC3)cc2)cc1S(=O)(=O)C(F)(F)F [AZD4320] + CC(=O)O[C@H]1C(=O)[C@@]2(C)[C@H]([C@H](OC(=O)c3ccccc3)[C@]3(O)C[C@H](OC(=O)[C@H](O)[C@@H](NC(=O)c4ccccc4)c4ccccc4)C(C)=C1C3(C)C)[C@]1(OC(C)=O)CO[C@@H]1C[C@@H]2O [Paclitaxel] (first compound max 1 µM, 7x7, partner max 3 µM)",combination Emax,[1],1
same,combination Emax,[2],1
same,combination Emax,[3],0.777
same,combination Emax,[4],0.823
same,combination Emax,[5],0.97
same,combination Emax,[6],0.86
same,combination Emax,[7],0.968
same,combination Emax,[8],0.892
same,combination Emax,[9],1
same,combination Emax,[10],0.966
same,combination Emax,[11],0.891
same,combination Emax,[12],0.875
same,combination Emax,[13],0.963
same,combination Emax,[14],0.984
same,combination Emax,[15],0.739
same,combination Emax,[16],1
same,combination Emax,[17],0.999
same,combination Emax,[18],1
same,combination Emax,[19],0.726
same,combination Emax,[20],1
"CN(CCO)CC[C@H](CSc1ccccc1)Nc1ccc(S(=O)(=O)NC(=O)c2ccc(N3CCC([C@@H](O)c4ccccc4-c4ccc(Cl)cc4)CC3)cc2)cc1S(=O)(=O)C(F)(F)F [AZD4320] + CS(=O)(=O)CCNCc1ccc(-c2ccc3ncnc(Nc4ccc(OCc5cccc(F)c5)c(Cl)c4)c3c2)o1 [Lapatinib] (first compound max 1 µM, 7x7, partner max 10 µM)",combination Emax,[1],1
same,combination Emax,[2],1
same,combination Emax,[3],0.262
same,combination Emax,[4],0.347
same,combination Emax,[5],0.401
same,combination Emax,[6],0.328
same,combination Emax,[7],0.888
same,combination Emax,[8],0.244
same,combination Emax,[9],1
same,combination Emax,[10],0.701
same,combination Emax,[11],0.949
same,combination Emax,[12],0.883
same,combination Emax,[13],0.956
same,combination Emax,[14],0.951
same,combination Emax,[15],0.578
same,combination Emax,[16],1
same,combination Emax,[17],0.268
same,combination Emax,[18],1
same,combination Emax,[19],0.329
same,combination Emax,[20],1
"CN(CCO)CC[C@H](CSc1ccccc1)Nc1ccc(S(=O)(=O)NC(=O)c2ccc(N3CCC([C@@H](O)c4ccccc4-c4ccc(Cl)cc4)CC3)cc2)cc1S(=O)(=O)C(F)(F)F [AZD4320] + Nc1ccn([C@@H]2O[C@H](CO)[C@@H](O)C2(F)F)c(=O)n1 [Gemcitabine] (first compound max 1 µM, 7x7, partner max 0.3 µM)",combination Emax,[1],1
same,combination Emax,[2],1
same,combination Emax,[3],0.873
same,combination Emax,[4],0.52
same,combination Emax,[5],0.943
same,combination Emax,[6],0.674
same,combination Emax,[7],0.875
same,combination Emax,[8],0.482
same,combination Emax,[9],0.965
same,combination Emax,[10],0.857
same,combination Emax,[11],0.511
same,combination Emax,[12],0.911
same,combination Emax,[13],0.855
same,combination Emax,[14],0.662
same,combination Emax,[15],0.378
same,combination Emax,[16],1
same,combination Emax,[17],1
same,combination Emax,[18],1
same,combination Emax,[19],0.382
same,combination Emax,[20],1
"Cc1c2c(nn1C)CSCc1cc(n(C)n1)CSc1cc(c3ccccc3c1)OCCCc1c(C(=O)O)n(C)c3c-2c(Cl)ccc13 [AZD5991] + CC(=O)O[C@H]1C(=O)[C@@]2(C)[C@H]([C@H](OC(=O)c3ccccc3)[C@]3(O)C[C@H](OC(=O)[C@H](O)[C@@H](NC(=O)c4ccccc4)c4ccccc4)C(C)=C1C3(C)C)[C@]1(OC(C)=O)CO[C@@H]1C[C@@H]2O [Paclitaxel] (first compound max 1 µM, 7x7, partner max 3 µM)",combination Emax,[1],0.796
same,combination Emax,[2],0.399
same,combination Emax,[3],0.416
same,combination Emax,[4],0.44
same,combination Emax,[5],0.951
same,combination Emax,[6],0.977
same,combination Emax,[7],0.699
same,combination Emax,[8],0.734
same,combination Emax,[9],0.963
same,combination Emax,[10],0.993
same,combination Emax,[11],0.398
same,combination Emax,[12],0.706
same,combination Emax,[13],0.893
same,combination Emax,[14],0.498
same,combination Emax,[15],0.621
same,combination Emax,[16],1
same,combination Emax,[17],0.932
same,combination Emax,[18],1
same,combination Emax,[19],0.703
same,combination Emax,[20],1
